Data from publication PMC7047876, “Potent Chimeric Antimicrobial Derivatives of the Medicago truncatula NCR247 Symbiotic Peptide” (Frontiers in Microbiology, 2020).
Converted amounts (≈) assume the structure as drawn. Read-outs that look alike come from different tables or passages of the source. Peptide text beside a SMILES is read from it.

Columns and labels:
Assay type in all cases: cell-based
[1] = system: Listeria monocytogenes (ATCC 19111); test: microbe, parasite or virus in culture; details: for MBC: read-out: Minimal bactericidal concentration (MBC) L. m.
Text: (§1) The pathogenic bacterial strains obtained from the ATCC (United States) and NCTC (National Collection of Type Cultures – England) were the Gram-positive: Enterococcus faecalis (ATCC 29212), Staphylococcus aureus (HNCMO112011), Listeria monocytogenes (ATCC 19111) and the Gram-negative: Pseudomonas aeruginosa (ATCC 27853), Escherichia coli (ATCC 8739), Salmonella enterica (ATCC 13076), Klebsiella pneumoniae (NCTC 13440), Acinetobacter baumannii (ATCC 17978).
(§2) Overnight bacterial cultures grown in LB were diluted and grown to OD600 = 0.2–0.6 at 37°C with shaking. After harvesting and washing bacteria in PPB, the suspensions were adjusted to OD600 = 0.1 corresponding to ∼10^7 bacteria/mL. Antimicrobial activity of the peptides and the antibiotics was determined in PPB in 96 well microplates using 10 μL bacterial suspension and 90 μL of the 2-fold serial dilutions of peptides or antibiotics. Peptides were tested from 25 μM to 0.125 μM whereas the antibiotics; carbenicillin (Cb) from Duchefa Biochemie (Prod.No. C0109.0025) and levofloxacin (Lvx) from Sigma-Aldrich (Prod.No. 28266-10MG-F) from […] to 0.1 μM. The microplates were incubated for 3 h at 37°C with 250 rpm shaking and then 5 μl from each sample was placed on LB agar and the growth of bacteria was monitored after overnight incubation at 37°C. The lowest concentration of the antimicrobial agents, which completely eliminated viable bacteria was the minimal bactericidal concentration (MBC).

[2] = system: Enterococcus faecalis (ATCC 29212); test: microbe, parasite or virus in culture; details: read-out: Minimal bactericidal concentration (MBC) E. f.
Text: as §1, §2

[3] = system: Salmonella enterica (ATCC 13076); test: microbe, parasite or virus in culture; details: read-out: Minimal bactericidal concentration (MBC) S. e.
Text: as §1, §2

[4] = system: Klebsiella pneumoniae (NCTC 13440); test: microbe, parasite or virus in culture; details: for MBC: read-out: Minimal bactericidal concentration (MBC) K. p.
Text: as §1, §2

[5] = system: Staphylococcus aureus (HNCMO112011); test: microbe, parasite or virus in culture; details: read-out: Minimal bactericidal concentration (MBC) S. a.
Text: as §1, §2

[6] = system: Acinetobacter baumannii (ATCC 17978); test: microbe, parasite or virus in culture; details: read-out: Minimal bactericidal concentration (MBC) A. b.
Text: as §1, §2

[7] = system: Escherichia coli (ATCC 8739); test: microbe, parasite or virus in culture; details: read-out: Minimal bactericidal concentration (MBC) E. c.
Text: as §1, §2

[8] = system: Pseudomonas aeruginosa (ATCC 27853); test: microbe, parasite or virus in culture; details: read-out: Minimal bactericidal concentration (MBC) P. a.
Text: as §1, §2

[9] = system: ESKAPE bacteria, L. monocytogenes and S. enterica; test: Antimicrobial activity in PPB, summarised over the tested bacteria; details: for MBC, range over the tested bacteria as summarised in the text: 3 h in PPB, carbenicillin range excludes L. monocytogenes, peptide G range excludes E. faecalis
Text: as §1, §2

Acinetobacter baumannii = details: for MBC in Mueller Hinton Broth, panel (A), A. b.: 3 h; for MBC in Mueller Hinton Broth, panel (B), A. b. / MIC in Mueller Hinton Broth, panel (C), A. b.: 20 h
Text: as §1
(§3) Ca^2+ and Mg^2+ can inhibit the antimicrobial activity of cationic peptides, therefore the MBC and MIC values were also determined in MHB, which unlike PPB contains divalent cations and allows growth of bacteria. Bacteria were grown and prepared similarly except that bacteria were resuspended in MHB. 10 μl of bacteria OD600 = 0.1, supplemented with 45 μl MHB and 45 μl of 2-fold dilution series of peptides, were cultivated for 3 and 20 h at 37°C with shaking. Optical density of each sample was measured (Hidex Sense Microplate Reader with Plate Reader Software version 5064) and 5 μl was placed on LB agar plates after 3 and 20 h treatment. The minimal inhibitory concentration (MIC) corresponded to the lowest concentration, which inhibited growth.

Staphylococcus aureus = details: for MBC in Mueller Hinton Broth, panel (A), S. a.: 3 h; for MBC in Mueller Hinton Broth, panel (B), S. a. / MIC in Mueller Hinton Broth, panel (C), S. a.: 20 h
Text: as §1, §3

Escherichia coli = details: for MBC in Mueller Hinton Broth, panel (A), E. c.: 3 h; for MBC in Mueller Hinton Broth, panel (B), E. c. / MIC in Mueller Hinton Broth, panel (C), E. c.: 20 h
Text: as §1, §3

[10] = Listeria monocytogenes, ATCC19111, 3 h treatment in PPB (20 mM potassium-phosphate buffer, pH 7.4), 37°C, then plating on LB agar
[11] = Enterococcus faecalis, ATCC29212, 3 h treatment in PPB (20 mM potassium-phosphate buffer, pH 7.4), 37°C, then plating on LB agar
[12] = Salmonella enterica, ATCC13076, 3 h treatment in PPB (20 mM potassium-phosphate buffer, pH 7.4), 37°C, then plating on LB agar
[13] = Klebsiella pneumoniae, NCTC13440, 3 h treatment in PPB (20 mM potassium-phosphate buffer, pH 7.4), 37°C, then plating on LB agar
[14] = Staphylococcus aureus, 3 h treatment in PPB (20 mM potassium-phosphate buffer, pH 7.4), 37°C, then plating on LB agar
[15] = Acinetobacter baumannii, ATCC17978, 3 h treatment in PPB (20 mM potassium-phosphate buffer, pH 7.4), 37°C, then plating on LB agar
[16] = Escherichia coli, ATCC8739, 3 h treatment in PPB (20 mM potassium-phosphate buffer, pH 7.4), 37°C, then plating on LB agar
[17] = Pseudomonas aeruginosa, ATCC27853, 3 h treatment in PPB (20 mM potassium-phosphate buffer, pH 7.4), 37°C, then plating on LB agar
[18] = 3 h treatment in PPB (20 mM potassium-phosphate buffer, pH 7.4), 37°C, then plating on LB agar

Compound	MBC [1, 10] [µM]	MBC [2, 11] [µM]	MBC [3, 12] [µM]	MBC [4, 13] [µM]	MBC in Mueller Hinton Broth, panel (A), A. b. (Acinetobacter baumannii) [µM]	MBC in Mueller Hinton Broth, panel (B), A. b. (Acinetobacter baumannii) [µM]	MIC in Mueller Hinton Broth, panel (C), A. b. (Acinetobacter baumannii) [µM]	MBC in Mueller Hinton Broth, panel (A), S. a. (Staphylococcus aureus) [µM]	MBC in Mueller Hinton Broth, panel (B), S. a. (Staphylococcus aureus) [µM]	MIC in Mueller Hinton Broth, panel (C), S. a. (Staphylococcus aureus) [µM]	MBC in Mueller Hinton Broth, panel (A), E. c. (Escherichia coli) [µM]	MBC in Mueller Hinton Broth, panel (B), E. c. (Escherichia coli) [µM]	MIC in Mueller Hinton Broth, panel (C), E. c. (Escherichia coli) [µM]	MBC ([1]; ATCC 19111, 3 h, pH 7.4) [µM]	MBC ([2]; ATCC 29212, 3 h, pH 7.4) [µM]	MBC ([3]; ATCC 13076, 3 h, pH 7.4) [µM]	MBC ([5]; HNCMO112011, 3 h, pH 7.4) [µM]	MBC ([6]; ATCC 17978, 3 h, pH 7.4) [µM]	MBC ([7]; ATCC 8739, 3 h, pH 7.4) [µM]	MBC ([8]; ATCC 27853, 3 h, pH 7.4) [µM]	also measured
C[C@H]1COc2c(N3CCN(C)CC3)c(F)cc3c(=O)c(C(=O)O)cn1c23 [Lvx, levofloxacin, reference compound]	320 (≈ 116 µg/mL)	160 (≈ 57.8 µg/mL)	1.3 (≈ 0.47 µg/mL)	320 (≈ 116 µg/mL)																	MBC [5, 14]: 2.5 µM (≈ 0.903 µg/mL); MBC [6, 15]: 20 µM (≈ 7.23 µg/mL); MBC [7, 16]: 5 µM (≈ 1.81 µg/mL); MBC [8, 17]: 1.3 µM (≈ 0.47 µg/mL); MBC, range over the tested bacteria as summarised in the text [9]: 1.25 to 320 µM
CC1(C)S[C@@H]2[C@H](NC(=O)C(C(=O)O)c3ccccc3)C(=O)N2[C@H]1C(=O)O (some centres unmarked) [Cb, carbenicillin, reference compound]	80 (≈ 30.3 µg/mL)	5120 (≈ 1940 µg/mL)	640 (≈ 242 µg/mL)	> 10200																	MBC [5, 14]: 640 µM (≈ 242 µg/mL); MBC [6, 15]: 5120 µM (≈ 1940 µg/mL); MBC [7, 16]: 1280 µM (≈ 484 µg/mL); MBC [8, 17]: 10200 µM (≈ 3870 µg/mL); MBC, range over the tested bacteria as summarised in the text [9]: 640 to 10240 µM
CC(C)C[C@H](NC(=O)[C@@H]1CCCN1C(=O)[C@H](CCCNC(=N)N)NC(=O)[C@H](CCCNC(=N)N)NC(=O)[C@H](CS)NC(=O)[C@H](CCC(N)=O)NC(=O)[C@@H](N)CCC(N)=O)C(=O)N[C@@H](Cc1ccc(O)cc1)C(=O)N[C@@H](CS)C(=O)N[C@@H](CCCNC(=N)N)C(=O)N[C@@H](CCCNC(=N)N)C(=O)N[C@@H](CCCNC(=N)N)C(=O)N[C@@H](Cc1c[nH]c2ccccc12)C(=O)N[C@@H](CO)C(=O)N[C@@H](Cc1c[nH]cn1)C(=O)N1CCC[C@H]1C(=O)N[C@@H](CCC(N)=O)C(=O)N[C@@H](Cc1ccccc1)C(=O)N[C@@H](CCC(=O)O)C(=O)N[C@@H](CCCCN)C(N)=O [C, NCR247C-StrepII] (H-QQCRRPLYCRRRWSHPQFEK-NH2; N-terminus assumed)					> 25	>25	>25	> 25	>25	>25	> 25	>25	>25	>25	>25	>25	6.3 (≈ 16.8 µg/mL)	25 (≈ 66.9 µg/mL)	6.3 (≈ 16.8 µg/mL)	6.3 (≈ 16.8 µg/mL)	MBC ([4]; NCTC 13440, 3 h, pH 7.4): >25 µM
RNGCIVDPRCPY [N-terminal part, 12 amino acid long N-terminal half of NCR247]																					Antimicrobial activity on the tested bacteria ([9]; PPB, peptides tested up to 25 μM): inactive
CC[C@H](C)[C@H](NC(=O)[C@H](CS)NC(=O)CNC(=O)[C@H](CC(N)=O)NC(=O)[C@@H](N)CCCNC(=N)N)C(=O)N[C@H](C(=O)N[C@@H](CC(=O)O)C(=O)N1CCC[C@H]1C(=O)N[C@@H](CCCNC(=N)N)C(=O)N[C@@H](CS)C(=O)N1CCC[C@H]1C(=O)N[C@@H](Cc1ccc(O)cc1)C(=O)N[C@@H](CCC(N)=O)C(=O)N[C@@H](CCC(N)=O)C(=O)N[C@@H](CS)C(=O)N[C@@H](CCCNC(=N)N)C(=O)N[C@@H](CCCNC(=N)N)C(=O)N1CCC[C@H]1C(=O)N[C@@H](CC(C)C)C(=O)N[C@@H](Cc1ccc(O)cc1)C(=O)N[C@@H](CS)C(=O)N[C@@H](CCCNC(=N)N)C(=O)N[C@@H](CCCNC(=N)N)C(=O)N[C@@H](CCCNC(=N)N)C(N)=O)C(C)C [A, NCR247] (H-RNGCIVDPRCPYQQCRRPLYCRRR-NH2; N-terminus assumed)					> 25	>25	>25	> 25	>25	>25	> 25	>25	25 (≈ 75.2 µg/mL)	>25	>25	25 (≈ 75.2 µg/mL)	6.3 (≈ 19 µg/mL)	12.5 (≈ 37.6 µg/mL)	6.3 (≈ 19 µg/mL)	3.1 (≈ 9.33 µg/mL)	Minimal bactericidal concentration (MBC) L. m. [1, 18]: resistant at 25 μM; Minimal bactericidal concentration (MBC) K. p. [4, 18]: resistant at 25 μM
CC(C)C[C@H](NC(=O)[C@@H]1CCCN1C(=O)[C@H](CCCNC(=N)N)NC(=O)[C@H](CCCNC(=N)N)NC(=O)[C@H](CS)NC(=O)[C@H](CCC(N)=O)NC(=O)[C@@H](N)CCC(N)=O)C(=O)N[C@@H](Cc1ccc(O)cc1)C(=O)N[C@@H](CS)C(=O)N[C@@H](CCCNC(=N)N)C(=O)N[C@@H](CCCNC(=N)N)C(=O)N[C@@H](CCCNC(=N)N)C(N)=O [B, NCR247C] (H-QQCRRPLYCRRR-NH2; N-terminus assumed)					> 25	>25	>25	> 25	>25	>25	> 25	>25	>25	>25	>25	>25	>25	25 (≈ 40.8 µg/mL)	6.3 (≈ 10.3 µg/mL)	25 (≈ 40.8 µg/mL)	MBC ([4]; NCTC 13440, 3 h, pH 7.4): >25 µM
